Assay [1] deals with T1, human TSH receptor (Homo sapiens (Human), UniProt P16473). The experiment in a line: Antagonist activity against TSH at the human TSH receptor expressed in CHO cells (CRE-luciferase reporter). Particulars: together with 18 nM bovine TSH.
Protocol: Antagonist activity of the compounds against TSH at the human TSH receptor was tested in Chinese Hamster Ovary (CHO) cells stably transfected with a plasmid encoding the human TSH receptor and a second plasmid with a cAMP responsive element (CRE)/promotor directing the expression of a firefly luciferase reporter gene. Binding of bovine TSH to the Gs-coupled TSH receptor will result in an increase of cAMP, which in turn will induce an increased transactivation of the luciferase reporter. Luciferase activity was quantified using a luminescence counter.
Assay [2] relates to constitutively active human TSHR mutants (Thr632Ile, Ala623Val, Ile568Thr, Asp619Gly and Asp633Glu). The experiment in a line: Antagonist activity at constitutively active human TSH receptors expressed in CHO cells (cAMP Alphascreen). Type of assay: cell-based. Particulars: 10^−6M compound, 10 μM rolipram, transiently transfected CHO cells. Here is the method: Antagonist activity of two compounds was tested in Chinese Hamster Ovary (CHO) cells transiently transfected with a plasmid encoding one of the 5 most prevalent, constitutively active human TSHR mutants (Thr632Ile, Ala623Val, Ile568Thr, Asp619Gly and Asp633Glu) (van Sande et al. (1995) J. Clin. Endocrinol. Metabol. 80, 2577-2585), which have been identified in autonomously functioning thyroid nodules causing hyperthyroidism. The cells were incubated with 10^−6M of either the compound of example 35 or example 1 in the presence of 10 μM rolipram. Activity of the TSH receptor mutants was quantified using a Packard cAMP Alphascreen assay.

Assay [3] deals with T1, human TSH receptor. The experiment in a line: Antagonist activity against bovine TSH at the human TSH receptor in CHO cells under the TSI assay conditions (CRE-luciferase reporter, rolipram). It is filed as cell-based. Particulars: stimulated with 18 nM bovine TSH; 10 μM rolipram; CHO cells cultured 16 h without serum.
The target of assay [4] is T1, human TSH receptor. The experiment in a line: Antagonist activity against human TSI at the human TSH receptor expressed in CHO cells (CRE-luciferase reporter, rolipram). It is filed as cell-based. Particulars: stimulated with 3.16 mg/ml human TSI; 10 μM rolipram; CHO cells cultured 16 h without serum.

We go through 13 compounds from patent US9174940B2, “TSH receptor antagonizing tetrahydroquinoline compounds” (Merck Sharp & Dohme B.V., priority 2007, dated 2015).

T1 sequence (P16473 21-764): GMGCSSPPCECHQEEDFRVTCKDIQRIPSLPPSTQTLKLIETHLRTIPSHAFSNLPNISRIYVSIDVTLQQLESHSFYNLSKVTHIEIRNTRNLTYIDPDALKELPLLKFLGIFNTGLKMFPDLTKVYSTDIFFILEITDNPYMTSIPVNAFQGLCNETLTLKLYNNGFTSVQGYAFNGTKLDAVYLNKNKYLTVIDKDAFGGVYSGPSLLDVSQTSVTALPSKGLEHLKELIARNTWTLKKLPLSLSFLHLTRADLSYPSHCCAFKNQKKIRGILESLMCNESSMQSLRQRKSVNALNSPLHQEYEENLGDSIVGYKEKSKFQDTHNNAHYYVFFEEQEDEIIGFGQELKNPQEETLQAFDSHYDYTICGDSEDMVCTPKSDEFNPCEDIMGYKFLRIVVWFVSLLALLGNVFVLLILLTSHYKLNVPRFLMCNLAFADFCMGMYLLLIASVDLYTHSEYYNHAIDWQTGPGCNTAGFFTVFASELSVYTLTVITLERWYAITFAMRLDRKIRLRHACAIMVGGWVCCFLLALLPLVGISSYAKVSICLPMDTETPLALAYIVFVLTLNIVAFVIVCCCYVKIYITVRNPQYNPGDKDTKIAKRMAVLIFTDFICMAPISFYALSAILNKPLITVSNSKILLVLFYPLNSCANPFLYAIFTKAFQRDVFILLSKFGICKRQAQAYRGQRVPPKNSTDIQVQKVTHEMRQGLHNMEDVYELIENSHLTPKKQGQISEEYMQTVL

Regarding `CC(=O)N1c2ccc(NC(=O)c3ccccn3)cc2C(C)(c2ccccc2)CC1(C)C` (stereo not drawn) [Example 4, Pyridine-2-carboxylic acid (1-acetyl-2,2,4-trimethyl-4-phenyl-1,2,3,4-tetrahydro-quinolin-6-yl)-amide], the concentration for half-maximal inhibition (IC50) on human TSH receptor [1] is below 0.1 µM.

As to `CCCCCC(=O)Nc1ccc2c(c1)C(C)(c1ccccc1)CC(C)(C)N2C(C)=O` (stereo not drawn) [Example 1, Hexanoic acid (1-acetyl-2,2,4-trimethyl-4-phenyl-1,2,3,4-tetrahydro-quinolin-6-yl)-amide], the “inhibition of constitutive activity of all 5 receptor mutants” value in assay [2] is above 80%. The 50% inhibitory concentration (IC50) against human TSH receptor [3] is 0.368 µM; on human TSH receptor [1] it was below 0.1 µM; against human TSH receptor [4], 0.088 µM.

Turning to “(1-Acetyl-4-methyl-4-phenyl-1,2,3,4,4a,8a-hexahydro-quinolin-6-yl)-carbamic acid cyclopentyl ester [Example 32]”, the IC50 against human TSH receptor [1] was below 0.1 µM.

As to `CCCCOC(=O)Nc1ccc2c(c1)C(C)(c1ccccc1)CC(C)(C)N2C(C)=O` (stereo not drawn) [Example 7, (1-Acetyl-2,2,4-trimethyl-4-phenyl-1,2,3,4-tetrahydro-quinolin-6-yl)-carbamic acid butyl ester], at human TSH receptor [1], the half-inhibitory concentration (IC50) was below 0.1 µM.

Take `CC(=O)N1c2ccc(NC(=O)OCCOc3ccccc3)cc2C(C)(c2ccccc2)CC1(C)C` (stereo not drawn) [Example 6, (1-Acetyl-2,2,4-trimethyl-4-phenyl-1,2,3,4-tetrahydro-quinolin-6-yl)-carbamic acid 2-phenoxy-ethyl ester]: the concentration for half-maximal inhibition (IC50) against human TSH receptor [1] is below 0.1 µM.

Regarding `CC(=O)N1CCC(C)(c2ccccc2)c2cc(NC(=O)OCC3(C)CC3)ccc21` (stereo not drawn) [Example 28, (1-Acetyl-4-methyl-4-phenyl-1,2,3,4-tetrahydro-quinolin-6-yl)-carbamic acid 1-methyl-cyclopropylmethyl ester], on human TSH receptor [1], the IC50 was below 0.1 µM.

At human TSH receptor [1], `CC(=O)N1CCC(C)(c2ccccc2)c2cc(NC(=O)OCCC(C)C)ccc21` (stereo not drawn) [Example 27, (1-Acetyl-4-methyl-4-phenyl-1,2,3,4-tetrahydro-quinolin-6-yl)-carbamic acid 3-methyl-butyl ester] returned a 50% inhibitory concentration (IC50) below 0.1 µM.

With `CC(=O)N1CCC(C)(c2ccccc2)c2cc(NC(=O)OC3CCCC3)ccc21` (single isomer, unassigned; (+)) [Example 39], the figures for the concentration for half-maximal inhibition (IC50) against human TSH receptor [3] and on human TSH receptor [4] were 0.048 µM and 0.012 µM, respectively.

Turning to `CC(=O)N1CCC(C)(c2ccccc2)c2cc(NC(=O)c3ccc(Br)s3)ccc21` (stereo not drawn) [Example 35, 5-Bromo-thiophene-2-carboxylic acid (1-acetyl-4-methyl-4-phenyl-1,2,3,4-tetrahydro-quinolin-6-yl)-amide], the “inhibition of constitutive activity of all 5 receptor mutants” value in assay [2] is reported as above 80%.

With `CC(=O)N1CCC(C)(c2ccccc2)c2cc(NC(=O)OCc3ccc(F)c(Cl)c3)ccc21` (stereo not drawn) [Example 34, (1-Acetyl-4-methyl-4-phenyl-1,2,3,4-tetrahydro-quinolin-6-yl)-carbamic acid 3-chloro-4-fluoro-benzyl ester], the IC50 on human TSH receptor [1] is below 0.1 µM.

`CC(=O)N1c2ccc(NC(=O)CCc3cccc(Cl)c3)cc2C(C)(c2ccccc2)CC1(C)C` (stereo not drawn) [Example 26, N-(1-Acetyl-2,2,4-trimethyl-4-phenyl-1,2,3,4-tetrahydro-quinolin-6-yl)-3-(3-chloro-phenyl)-propionamide]: the half-maximal inhibitory concentration (IC50) at human TSH receptor [1] was below 0.1 µM.

On human TSH receptor [1], `CC(=O)N1CCC(C)(c2ccccc2)c2cc(NC(=O)OCC3CCC3)ccc21` (stereo not drawn) [Example 29, (1-Acetyl-4-methyl-4-phenyl-1,2,3,4-tetrahydro-quinolin-6-yl)-carbamic acid cyclobutylmethyl ester] showed an IC50 below 0.1 µM.

In the case of `CC(=O)N1CCC(C)(c2ccccc2)c2cc(NC(=O)OCc3ccc(F)c(Cl)c3)ccc21` (single isomer, unassigned; (+)) [Example 40, (+)-(1-Acetyl-4-methyl-4-phenyl-1,2,3,4-tetrahydro-quinolin-6-yl)-carbamic acid 3-chloro-4-fluoro-benzyl ester], the 50% inhibitory concentration (IC50) on human TSH receptor [3] came out at 0.192 µM; against human TSH receptor [4], 0.047 µM.
